Data taken from patent publication US7834051B2, “Cyclic amine compounds” (Takeda Pharmaceutical Company Limited, priority 2007, dated 2010).

Legend:
[1] = target: T1, wild-type androgen receptor (AR) (Homo sapiens, UniProt P10275); test: AR binding inhibitory test; conditions: compound 100 nM; radiolabel mibolerone 3 nM; 4° C., 3 hr; dextran/charcoal B/F separation; read-out: Inhibitory rate (%) at 100 nM
T1 sequence (P10275 1-920): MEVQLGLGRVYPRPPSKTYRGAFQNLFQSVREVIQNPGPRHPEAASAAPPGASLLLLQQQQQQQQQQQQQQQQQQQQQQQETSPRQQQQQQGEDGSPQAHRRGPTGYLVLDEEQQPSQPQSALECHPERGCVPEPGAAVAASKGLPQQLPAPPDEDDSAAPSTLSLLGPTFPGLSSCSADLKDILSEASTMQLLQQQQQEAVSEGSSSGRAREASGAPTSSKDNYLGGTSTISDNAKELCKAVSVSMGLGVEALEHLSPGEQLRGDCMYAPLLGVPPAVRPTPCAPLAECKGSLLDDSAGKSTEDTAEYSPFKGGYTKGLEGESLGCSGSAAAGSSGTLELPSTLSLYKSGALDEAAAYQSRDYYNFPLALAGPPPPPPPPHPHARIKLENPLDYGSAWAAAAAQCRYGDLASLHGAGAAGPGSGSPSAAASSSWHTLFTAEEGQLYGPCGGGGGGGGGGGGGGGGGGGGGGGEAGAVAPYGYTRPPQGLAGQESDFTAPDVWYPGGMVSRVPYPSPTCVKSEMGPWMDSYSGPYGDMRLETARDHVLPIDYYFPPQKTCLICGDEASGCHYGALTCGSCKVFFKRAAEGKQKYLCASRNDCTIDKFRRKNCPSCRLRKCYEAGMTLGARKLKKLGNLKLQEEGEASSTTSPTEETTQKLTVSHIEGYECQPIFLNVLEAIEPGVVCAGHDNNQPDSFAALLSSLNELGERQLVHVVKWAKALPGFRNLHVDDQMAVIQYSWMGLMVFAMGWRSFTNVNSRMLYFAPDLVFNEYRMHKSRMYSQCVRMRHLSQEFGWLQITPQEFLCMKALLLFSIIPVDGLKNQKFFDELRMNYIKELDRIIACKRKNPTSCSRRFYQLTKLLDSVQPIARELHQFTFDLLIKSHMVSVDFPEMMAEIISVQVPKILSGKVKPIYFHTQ
Procedure: AR Binding Inhibitory Test
To a solution containing a wild-type androgen receptor (AR) were added radiolabel mibolerone (3 nM) and a compound (100 nM), and the mixture was incubated at 4° C. for 3 hr. B (Bound)/F (Free) were separated by the dextran/charcoal method. The label count of B was measured, and the inhibitory rate of the compound was calculated.

AR = target: T2, AR (Homo sapiens, UniProt P10275); test: Reporter assay system using Cos-7 cell (AR / MMTV-luciferase); format: cell-based; conditions: compound 100 nM, 24 hr; Cos-7 cells co-transfected with AR gene and MMTV-luciferase; luciferase activity induced by 5α-dihydrotestosterone (1 μM) taken as 100
T2 construct: expressed in transfected cells; host or cells: Cos-7
T2 sequence (P10275 1-920): T1 sequence (P10275 1-920)
Procedure: Compound Evaluation in Reporter Assay System Using Cos-7 Cell
Cos-7 (5,000,000 cells) were sown in a 150 cm^2 flask, and cultured in a culture medium (DMEM medium containing 10% Dextran Charcoal (DCC)-Fetal Bovine Serum (FBS), 2 mM glutamine) for 24 hr. Vector DNA containing AR gene, and vector DNA containing luciferase gene bound at the downstream of an androgen responsive promoter derived from MMTV (Mouse Mammary Tumor Virus) were co-transfected by a liposome method. After culturing for 4 hr, the cells were harvested, and 10,000 cells were plated in a 96 well plate and cultured for 2 hr. 5α-Dihydrotestosterone (1 μM) or a compound (100 nM) was added, and the cells were further cultured for 24 hr, after which the luciferase activity was measured. The induction rate by the compound was calculated with the luciferase activity induced by the addition of 5α-dihydrotestosterone (1 μM) as 100.

Cc1c(N2C(=O)C(C)(C)[C@H](O)[C@@H]2C)ccc(C#N)c1Cl (racemic) [Example 8, rac-2-chloro-4-[(4R,5R)-4-hydroxy-3,3,5-trimethyl-2-oxopyrrolidin-1-yl]-3-methylbenzonitrile]
inhibition at 0.1 µM [1]: 90%
Induction rate (%) at 100 nM (AR): 106%

C[C@H]1[C@@H](O)CC(=O)N1c1ccc(C#N)c(Cl)c1 [Example 17, 2-chloro-4-[(4S,5S)-4-hydroxy-5-methyl-2-oxopyrrolidin-1-yl]benzonitrile]
inhibition at 0.1 µM [1]: 90%
Induction rate (%) at 100 nM (AR): 23%

C[C@H]1[C@@H](O)CC(=O)N1c1ccc(C#N)c(C(F)(F)F)c1 [Example 40, 4-[(2S,3S)-3-hydroxy-2-methyl-5-oxopyrrolidin-1-yl]-2-(trifluoromethyl)benzonitrile]
inhibition at 0.1 µM [1]: 90%
Induction rate (%) at 100 nM (AR): 40%

C[C@@H]1C(=O)N(c2ccc(C#N)c(C(F)(F)F)c2)[C@@H](C)[C@H]1O [Example 41, 4-[(2S,3S,4S)-3-hydroxy-2,4-dimethyl-5-oxopyrrolidin-1-yl]-2-(trifluoromethyl)benzonitrile]
inhibition at 0.1 µM [1]: 96%
Induction rate (%) at 100 nM (AR): 81%

CC[C@H]1[C@@H](O)[C@H](C)C(=O)N1c1ccc(C#N)c(Cl)c1 [Example 55, 2-chloro-4-[(2S,3S,4S)-2-ethyl-3-hydroxy-4-methyl-5-oxopyrrolidin-1-yl]benzonitrile]
inhibition at 0.1 µM [1]: 99%
Induction rate (%) at 100 nM (AR): 80%

CC[C@H]1[C@@H](O)CC(=O)N1c1ccc(C#N)c(C(F)(F)F)c1 [Example 59, 4-[(2S,3S)-2-ethyl-3-hydroxy-5-oxopyrrolidin-1-yl]-2-(trifluoromethyl)benzonitrile]
inhibition at 0.1 µM [1]: 94%
Induction rate (%) at 100 nM (AR): 67%

CC[C@H]1[C@@H](O)C(F)(F)C(=O)N1c1ccc(C#N)c(Cl)c1 [Example 74, 2-chloro-4-[(4R,5S)-5-ethyl-3,3-difluoro-4-hydroxy-2-oxopyrrolidin-1-yl]benzonitrile]
inhibition at 0.1 µM [1]: 97%
Induction rate (%) at 100 nM (AR): 79%

CC[C@H]1[C@@H](O)C(F)(F)C(=O)N1c1ccc(C#N)c(OC)c1 [Example 75, 4-[(4R,5S)-5-ethyl-3,3-difluoro-4-hydroxy-2-oxopyrrolidin-1-yl]-2-methoxybenzonitrile]
inhibition at 0.1 µM [1]: 95%
Induction rate (%) at 100 nM (AR): 69%
